Measured values reported in patent US8987502B2, “Oleanolic acid amidate derivatives, preparation methods and uses thereof” (Hangzhou Bensheng Pharmaceutical Co., Ltd., priority 2011, dated 2015).
Converted amounts (≈) assume the structure as drawn.

Tests used:
[1] = system: K562/adr; assay: MTT leukemia cell proliferation inhibition, K562/adr; format: cell-based; settings: Homo sapiens, 72 h
From the text: (§1) Leukemia cell lines: leukemia cell lines: K562/adr (drug-resistant, chronic myeloid leukemia, CML), NB4 (acute promyelocytic leukemia, AML), Kasumi-1 (acute myeloid leukemia M2 type, AML-M2), Jurkat (acute lymphoblastic leukemia, ALL), all of which are donated by Cancer Research Institute of Zhejiang University, China; and H9 (acute lymphoblastic leukemia, ALL), which is purchased from China Center for Type Culture Collection (CCTCC).
(§2) Reagents: The standard sample of oleanolic acid (OA) is purchased from Hua Kang Pharmaceutical Raw Material Factory, Shifang City, Sichuan, China; and the amidated oleanolic acid derivatives are prepared according to the present invention.
(§3) Obtaining 6000 well-growing leukemia cells and inoculating them into wells of a 96-well cell culture plate. The culture medium is the 1640 cell culture medium containing 10% fetal bovine serum. After adding the amidated oleanolic acid derivatives of different concentrations and mixing uniformly, placing the plate in a carbon dioxide cell incubator (5% CO2) at 37° C. and incubated for 72 hours. Then the relative number of viable cells is determined by the MTT method. In this experiment, the cell proliferation inhibition rate in control group (not treated with any compound) is set as 0%.

[2] = system: NB4; assay: MTT leukemia cell proliferation inhibition, NB4; format: cell-based; settings: Homo sapiens, NB-4
From the text: as §1, §2, §3

[3] = system: Kasumi-1; assay: MTT leukemia cell proliferation inhibition, Kasumi-1; format: cell-based; settings: Homo sapiens
From the text: as §1, §2, §3

[4] = system: H9; assay: MTT leukemia cell proliferation inhibition, H9; format: cell-based, human
From the text: as §1, §2, §3

[5] = system: Jurkat; assay: MTT leukemia cell proliferation inhibition, Jurkat; format: cell-based; settings: Homo sapiens, 72 h
From the text: as §1, §2, §3

[6] = system: RPMI8226; assay: MTT multiple myeloma cell proliferation inhibition, RPMI8226; format: cell-based; settings: Homo sapiens, RPMI-8226
Description: Multiple myeloma cell lines: RPMI8226 (multiple myeloma), purchased from Fuxiang Bio-tech Co. Ltd., Shanghai, China.
as §3

[7] = system: A549; assay: MTT solid tumor cell proliferation inhibition, A549; format: cell-based, human; settings: Homo sapiens
Description: (§4) Human solid tumor cell lines: Hep-2 (laryngeal carcinoma), A549 (human lung cancer), CaES-17 (esophageal cancer cell), PC-3 (prostate cancer), CNE (nasopharyngeal carcinoma cell), and SK-OV-3 (ovarian cancer cell), all of which are purchased from China Center For Type Culture Collection; RKO (human colon adenocarcinoma cell), MGC 803 (human gastric cancer cell), MG63 (osteosarcoma) and U87 MG (malignant glioma cell), all of which are purchased from Fuxiang Bio-tech Co. Ltd., Shanghai, China; PANC-1 (pancreatic cancer), Hep G2 (human liver cancer cell), Becap37 (human breast cancer cell), and Hela (human cervical cancer cell), all of which are donated by Cancer Research Institute of Zhejiang University, China.
(§5) Obtaining 4000 well-growing human solid tumor cells and inoculating them into wells of a 96-well cell culture plate. The culture medium is DMEM High Glucose cell culture medium containing 10% fetal bovine serum. The plate is placed in a carbon dioxide cell incubator (5% CO2) at 37° C. for 24 hours for incubation. After being added with the amidated oleanolic acid derivatives of different concentrations and mixed uniformly, the plate is placed in a carbon dioxide cell incubator (5% CO2) at 37° C. for 72 hours for incubation. Then the relative number of the living cells is determined by the MTT method. In this experiment, the cell proliferation inhibition rate in control group (not treated with any compound) is set as 0%.

[8] = system: PANC-1; assay: MTT solid tumor cell proliferation inhibition, PANC-1; format: cell-based, human; settings: Homo sapiens
Description: as §4, §5

[9] = system: Becap37; assay: MTT solid tumor cell proliferation inhibition, Becap37; format: cell-based; settings: Homo sapiens
Description: as §4, §5

[10] = system: MG 63; assay: MTT solid tumor cell proliferation inhibition, MG 63; format: cell-based, human
Description: as §4, §5

[11] = system: Hep G2; assay: MTT solid tumor cell proliferation inhibition, Hep G2; format: cell-based; settings: Homo sapiens, HepG2
Description: as §4, §5

[12] = system: RKO; assay: MTT solid tumor cell proliferation inhibition, RKO; format: cell-based; settings: Homo sapiens, 72 h
Description: as §4, §5

[13] = system: U87 MG; assay: MTT solid tumor cell proliferation inhibition, U87 MG; format: cell-based, human; settings: Homo sapiens, U-87 MG, U87 MG, 72 h
Description: as §4, §5

[14] = system: Hela; assay: MTT solid tumor cell proliferation inhibition, Hela; format: cell-based, human; settings: Homo sapiens, Hela, 72 h
Description: as §4, §5

[15] = system: CaES-17; assay: MTT solid tumor cell proliferation inhibition, CaES-17; format: cell-based, human; settings: Homo sapiens, CaEs17
Description: as §4, §5

[16] = system: CNE; assay: MTT solid tumor cell proliferation inhibition, CNE; format: cell-based, human; settings: Homo sapiens, CNE, 72 h
Description: as §4, §5

[17] = system: Hep-2; assay: MTT solid tumor cell proliferation inhibition, Hep-2; format: cell-based, human; settings: Homo sapiens
Description: as §4, §5

[18] = system: MGC803; assay: MTT solid tumor cell proliferation inhibition, MGC803; format: cell-based, human; settings: Homo sapiens, MGC-803
Description: as §4, §5

[19] = system: PC-3; assay: MTT solid tumor cell proliferation inhibition, PC-3; format: cell-based, human
Description: as §4, §5

[20] = system: SK-OV-3; assay: MTT solid tumor cell proliferation inhibition, SK-OV-3; format: cell-based, human; settings: Homo sapiens
Description: as §4, §5

[21] = 16 μg/mL compound, read-out: IR (inhibition rate)

Question: How did the inhibition at 16 µg/mL [1, 21] turn out when `CC1(C)CC[C@]2(NC(=O)C3CC3)CC[C@]3(C)C(=CC[C@@H]4[C@@]5(C)CC[C@H](O)C(C)(C)[C@@H]5CC[C@]43C)[C@@H]2C1` [BS-OA-097] was run?
Answer: Its inhibition at 16 µg/mL is 91.3%.

Question: What about the IC50 ([1]; MTT) of the same compound?
Answer: The IC50 was 2.4 µg/mL (≈ 4.84 µM).

Question: What about the inhibition at 16 µg/mL ([2]; NB4, 16 μg/mL compound, 72 h, read-out: IR (inhibition rate)) of the same compound?
Answer: Its inhibition at 16 µg/mL is 93.4%.

Question: What about the IC50 ([2]; NB4, 72 h, MTT) of the same compound?
Answer: Its IC50 is 6.51 µg/mL (≈ 13.1 µM).

Question: What about the inhibition at 16 µg/mL ([3]; Kasumi-1, 16 μg/mL compound, 72 h, read-out: IR (inhibition rate)) of the same compound?
Answer: The inhibition at 16 µg/mL was 42.9%.

Question: What about the IC50 ([3]; Kasumi-1, 72 h, MTT) of the same compound?
Answer: The IC50 was over 16 µg/mL.

Question: And the “improvement of cell inhibition rate as compared with oleanolic acid” value ([4]; H9 cells)?
Answer: Its value is about 4 fold.

Question: And the inhibition at 16 µg/mL ([4]; Homo sapiens, H9, 16 μg/mL compound, 72 h, read-out: IR (inhibition rate))?
Answer: Its inhibition at 16 µg/mL is 85.3%.

Question: What about the IC50 ([4]; Homo sapiens, H9, 72 h, MTT) of the same compound?
Answer: The IC50 was 6.3 µg/mL (≈ 12.7 µM).

Question: And the inhibition at 16 µg/mL [5, 21]?
Answer: Its inhibition at 16 µg/mL is 56.6%.

Question: What about the IC50 ([5]; MTT) of the same compound?
Answer: Its IC50 is 14.3 µg/mL (≈ 28.9 µM).

Question: And the inhibition at 16 µg/mL ([6]; RPMI8226, 16 μg/mL compound, 72 h, read-out: IR (inhibition rate))?
Answer: Its inhibition at 16 µg/mL is 95.3%.

Question: And the IC50 ([6]; RPMI8226, 72 h, MTT)?
Answer: The IC50 was 3.51 µg/mL (≈ 7.08 µM).

Question: What about the inhibition at 16 µg/mL ([7]; A549, 16 μg/mL compound, 72 h, read-out: IR (inhibition rate)) of the same compound?
Answer: Its inhibition at 16 µg/mL is 38.1%.

Question: What about the IC50 ([7]; A549, 72 h, MTT) of the same compound?
Answer: The IC50 was over 16 µg/mL.

Question: What about the inhibition at 16 µg/mL ([8]; PANC-1, 16 μg/mL compound, 72 h, read-out: IR (inhibition rate)) of the same compound?
Answer: The inhibition at 16 µg/mL was 38.8%.

Question: What about the IC50 ([8]; PANC-1, 72 h, MTT) of the same compound?
Answer: Its IC50 is over 16 µg/mL.

Question: And the inhibition at 16 µg/mL ([9]; Becap37, 16 μg/mL compound, 72 h, read-out: IR (inhibition rate))?
Answer: The inhibition at 16 µg/mL was 41.3%.

Question: And the IC50 ([9]; Becap37, 72 h, MTT)?
Answer: The IC50 was over 16 µg/mL.

Question: And the IC50 ([10]; Homo sapiens, MG 63, 72 h, MTT)?
Answer: The IC50 was 13.2 µg/mL (≈ 26.5 µM).

Question: What about the “IR (inhibition rate)” value ([10]; MG 63, 16 μg/mL compound, 72 h) of the same compound?
Answer: Its value is 78.6%.

Question: And the inhibition at 16 µg/mL ([11]; Hep G2, 16 μg/mL compound, 72 h, read-out: IR (inhibition rate))?
Answer: The inhibition at 16 µg/mL was 35.1%.

Question: And the IC50 ([11]; Hep G2, 72 h, MTT)?
Answer: The IC50 was over 16 µg/mL.

Question: What about the inhibition at 16 µg/mL [12, 21] of the same compound?
Answer: Its inhibition at 16 µg/mL is 29%.

Question: And the IC50 ([12]; MTT)?
Answer: Its IC50 is over 16 µg/mL.

Question: And the inhibition at 16 µg/mL [13, 21]?
Answer: The inhibition at 16 µg/mL was 37.4%.

Question: What about the IC50 ([13]; MTT) of the same compound?
Answer: The IC50 was over 16 µg/mL.

Question: And the inhibition at 16 µg/mL [14, 21]?
Answer: Its inhibition at 16 µg/mL is 64.4%.

Question: And the IC50 ([14]; MTT)?
Answer: Its IC50 is 11.9 µg/mL (≈ 24 µM).

Question: And the inhibition at 16 µg/mL ([15]; CaES-17, 16 μg/mL compound, 72 h, read-out: IR (inhibition rate))?
Answer: Its inhibition at 16 µg/mL is 45.7%.

Question: What about the IC50 ([15]; CaES-17, 72 h, MTT) of the same compound?
Answer: The IC50 was 18.9 µg/mL (≈ 38.1 µM).

Question: And the inhibition at 16 µg/mL [16, 21]?
Answer: Its inhibition at 16 µg/mL is 40%.

Question: And the IC50 ([16]; MTT)?
Answer: The IC50 was over 16 µg/mL.

Question: What about the inhibition at 16 µg/mL ([17]; Hep-2, 16 μg/mL compound, 72 h, read-out: IR (inhibition rate)) of the same compound?
Answer: The inhibition at 16 µg/mL was 28.5%.

Question: What about the IC50 ([17]; Hep-2, 72 h, MTT) of the same compound?
Answer: The IC50 was over 16 µg/mL.

Question: What about the inhibition at 16 µg/mL ([18]; MGC803, 16 μg/mL compound, 72 h, read-out: IR (inhibition rate)) of the same compound?
Answer: Its inhibition at 16 µg/mL is 56.1%.

Question: And the IC50 ([18]; MGC803, 72 h, MTT)?
Answer: The IC50 was 14.4 µg/mL (≈ 29 µM).

Question: What about the inhibition at 16 µg/mL ([19]; Homo sapiens, PC-3, 16 μg/mL compound, 72 h, read-out: IR (inhibition rate)) of the same compound?
Answer: The inhibition at 16 µg/mL was 56.6%.

Question: What about the IC50 ([19]; Homo sapiens, PC-3, 72 h, MTT) of the same compound?
Answer: Its IC50 is 13.1 µg/mL (≈ 26.3 µM).

Question: And the “improvement of cell inhibition rate as compared with oleanolic acid” value ([19]; PC-3 cells)?
Answer: Its value is about 2 fold.

Question: And the inhibition at 16 µg/mL ([20]; SK-OV-3, 16 μg/mL compound, 72 h, read-out: IR (inhibition rate))?
Answer: The inhibition at 16 µg/mL was 68.9%.

Question: And the IC50 ([20]; SK-OV-3, 72 h, MTT)?
Answer: Its IC50 is 7.63 µg/mL (≈ 15.4 µM).
